Experimental data taken from US11708391B2, “Rapaglutins, novel inhibitors of GLUT and use thereof” (The Johns Hopkins University, priority 2016, dated 2023).
Read-outs that look alike come from different tables or passages of the source.

Key:
glucose transporters [1] = details: RCC4; read-out: IC50 (cell line); cited from earlier work
glucose transporters [2] = details: HL-60; read-out: IC50 (cell line); cited from earlier work
glucose transporters [3] = details: SW620; read-out: IC50 (cell line); cited from earlier work
glucose transporters [4] = details: A549; read-out: IC50 (cell line); cited from earlier work
glucose transporters [5] = details: DU145; read-out: IC50 (cell line); cited from earlier work
glucose transporters [6] = details: CHO-K1; read-out: IC50 (cell line); cited from earlier work
glucose transporters [7] = details: LNCaP; read-out: IC50 (cell line); cited from earlier work
glucose transporters [8] = assay: 2-deoxy-D-[3H] glucose uptake in A549 cells; assay type: cell-based, human; details: A549 cells
Experimental: FIGS. 2A-2D. Inhibition of Glucose Transport by A18 and E11. (a) Inhibition of 3-O-methyl¬D-[3H] glucose uptake in A549 cells by A18. (b) Inhibition of 3-O-methyl-D-[3H] glucose uptake in A549 cells by E11. (c) Inhibition of 2-deoxy-D-[3H] glucose uptake in A549 […] cells by A18. (d) Inhibition of 2-deoxy-D-[3H] glucose uptake in A549 cells by E11.
FIGS. 16A-16B. Inhibition of Glucose Transport by A18 and E11. Cytochalasin B (10 μM), A18 (3 μM), E11 (3 μM) and DMSO control were used to treated A549 cells for 10 min (a) or 1 min (b), then glucose uptake in the treated cells was measured at 1, 3, 10 and 30 min after the addition of 2-dexoy-D-[^3H] glucose.
Direct action on glucose transporters was measured by monitoring uptake of 3H-labeled 3-O-methylglucose, which is transported by glucose transporters but not metabolized further, allowing the assessment of initial rate of glucose uptake. […] Initial uptake can also be assessed by measuring the uptake of 3H-labeled 2-deoxy-D-glucose, which gets into the cell through glucose transporters and is phosphorylated by hexokinase but cannot be metabolized further due to the lack of oxygen at the second position.

SMILES: CC(C)(C)c1ccc(S(=O)(=O)NCc2ccc(C(=O)Nc3cccnc3)cc2)cc1 [STF-31]
- IC50 (glucose transporters [1]): ~1.2 µM

SMILES: O=c1c(-c2ccc(O)cc2)coc2cc(O)cc(O)c12 [Genistein]
- IC50 (glucose transporters [2]): ~12 µM

SMILES: O=C(CCc1ccc(O)cc1)c1c(O)cc(O)cc1O [Phloretin]
- IC50 (glucose transporters [3]): > 10 µM

SMILES: O=C(Oc1cccc(F)c1OC(=O)c1cccc(O)c1)c1cccc(O)c1 [WZB117]
- IC50 (glucose transporters [4]): ~0.5 µM

SMILES: CC(=O)CC(=O)Nc1ccc(Cl)c(C(F)(F)F)c1 [Fasentin]
- IC50 (glucose transporters [5]): ~80 µM

SMILES: CCOC(=O)[C@@]12CCCCC/C=C\1N(C(=O)c1cccc3ccccc13)C(=O)[C@H]2CC(=O)N1CCN(C(=O)c2ccco2)CC1 [Compound 11]
- IC50 (glucose transporters [6]): 2 µM

SMILES: CC(CN1C(=O)S/C(=C/c2ccc(O)c(C(F)(F)F)c2)C1=O)(CC(F)(F)F)CC(F)(F)F [Cpd30]
- IC50 (glucose transporters [7]): 2 µM

SMILES: CCC(C)(C)C(=O)C(=O)N1CCCC[C@H]1C(=O)O[C@H](CCc1ccc(OC)c(OC)c1)c1cccc(OCC(=O)O)c1 [SLF, reference compound]
- antagonism of inhibitory effects of A18 or E11 on 2-deoxy-D-glucose uptake by FKBP ligands (glucose transporters [8]): significantly impaired the inhibitory activity of E11
